Test results reported in patent publication US7256209B2, “Pyrazole derivatives and diabetic medicine containing them” (Ajinomoto Co., Inc., priority 2000, dated 2007).

How the values were obtained:
male Wistar rats [1] = experiment: Activity on rat's sugar urine excretion; type: in vivo; details: for The amount of excreted glucose in urine: 100 mg/kg oral, urine collected 24 hours, per day and individual; for activity on urinary glucose excretion as compared to Example 35 of WO01/16147 (in words): compared to Referential Example 1, Table 2; for activity on urinary glucose excretion (in words): oral administration, rat
Experimental: 5-week old male Wistar rats (purchased from Charles River Japan, Inc.) were used in the experiment after they were housed in a metabolic cage for about one week in advance. The test compounds were suspended in olive oil and 20 mg/ml solution was prepared so that the dosage given per 1 kg of the weight of the rats was 5 ml.
After the rats were not fed for 4 hours, the test compounds were orally administered to them at 11 a.m. Their urine was collected, from that taken just after the administration to that taken 24 hours after the administration and its volume was measured. Then, the concentration of glucose in urine was measured by glucose oxidase method and urinary glucose excreted per a day and an individual was calculated.

male Wistar rats [2] = experiment: Activity on rat's sugar urine excretion; type: in vivo; details: for The amount of excreted glucose in urine: urine collected 24 hours, per day and individual
[3] = test system: Renal brush border membrane glucose uptake; experiment: Inhibiting activity on renal brush border membrane glucose uptake; type: biochemical; details: rat renal brush border membrane, sodium-dependent 14C-D-glucose uptake
Experimental: The test compound was dissolved in 100 mM Mannitol-10 mM HEPES/Tris (pH 7.4) and solutions having various concentrations were prepared.
Renal brush border membrane was prepared from a rat kidney and the solutions of the test compounds were added thereto and the product was incubated at 37° C. for 30 minutes. Then ^14C-D-glucose was added and the mixture was incubated for 1 minute. After tie reaction of glucose uptake was stopped by a solution containing 1 mM of phloridzin, the activity of ^14C-D-glucose on ^14C was measured by a liquid scintillation counter. The intensity of inhibition was calculated by subtracting the amount of taken glucose that is independent on sodium from the amount of taken glucose of the object samples.

Compound | The amount of excreted glucose in urine (male Wistar rats [1]) [mg] | activity on urinary glucose excretion as compared to Example 35 of WO01/16147 (in words) (male Wistar rats [1]) | activity on urinary glucose excretion (in words) (male Wistar rats [1]) | also measured
Cc1[nH]nc(O[C@@H]2O[C@H](CO)[C@@H](O)[C@H](O)[C@H]2O)c1Cc1ccc(OC(C)C)cc1 [Referential Example Compound 1, 4-[(4-isopropoxyphenyl)methyl]-5-methyl-1H-pyrazole-3-O-β-D-glucopyranoside, reference compound] | 14 |  |  | 
CCc1ccc(Cc2c(O[C@@H]3O[C@H](COC(=O)OC)[C@@H](O)[C@H](O)[C@H]3O)nn(Cc3ccccc3)c2C(F)(F)F)cc1 [Example Compound 4, 4′-[(4′-ethylphenyl)methyl]-1′-benzyl-5′-trifluoromethyl-1H-pyrazole-3′-O-(6-carbomethoxy)-β-D-glucopyranoside] | 27 |  |  | 
CCc1ccc(Cc2c(O[C@@H]3O[C@H](COC(=O)OC)[C@@H](O)[C@H](O)[C@H]3O)nn(Cc3ccc(OC)cc3)c2C(F)(F)F)cc1 [Example Compound 6, 4′-[(4′-ethylphenyl)methyl]-1′-[(4′-methoxyphenyl)methyl]-5′-trifluoromethyl-1H-pyrazole-3′-O-(6-carbomethoxy)-β-D-glucopyranoside] | 59 |  |  | 
COC(=O)OC[C@H]1O[C@@H](Oc2nn(C(C)C)c(C)c2Cc2ccc(C)c(F)c2)[C@H](O)[C@@H](O)[C@@H]1O [Example Compound 14, 4′-[(3′-fluoro-4′-methylphenyl)methyl]-1′-isopropyl-5′-methyl-1H-pyrazole-3′-O-(6-carbomethoxy)-β-D-glucopyranoside] | 918 | much higher activity | particularly high activity | 
CCc1ccc(Cc2c(O[C@@H]3O[C@H](COC(=O)OC)[C@@H](O)[C@H](O)[C@H]3O)nn(C(C)C)c2C)cc1 [Example Compound 16, 4′-[(4-ethylphenyl)methyl]-1′-isopropyl-5′-methyl-1H-pyrazole-3′-O-(6-carbomethoxy)-β-D-glucopyranoside] | 598 | much higher activity | particularly high activity | The amount of excreted glucose in urine (male Wistar rats [2]; 3 mg/kg oral): 28 mg; The amount of excreted glucose in urine (male Wistar rats [2]; 10 mg/kg oral): 263 mg; The amount of excreted glucose in urine (male Wistar rats [2]; 30 mg/kg oral): 294 mg; activity on urinary glucose excretion (in words) (male Wistar rats [2]; orally administered in lower doses such as 30 mg/kg or lower): still has high activity
COC(=O)OC[C@H]1O[C@@H](Oc2nn(C(C)C)c(C)c2Cc2ccc(OC)c(F)c2)[C@H](O)[C@@H](O)[C@@H]1O [Example Compound 10, 4′-[(3′-fluoro-4′-methoxyphenyl)methyl]-1′-isopropyl-5′-methyl-1H-pyrazole-3′-O-(6-carbomethoxy)-β-D-glucopyranoside] | 734 | much higher activity | particularly high activity | 
CCc1ccc(Cc2c(O[C@@H]3O[C@H](C(=O)O)[C@@H](O)[C@H](O)[C@H]3O)n[nH]c2C(F)(F)F)cc1 [Example Compound 2, 4-((4-ethylphenyl)methyl)-5-(trifluoromethyl)-1H-pyrazole-3-yl-O-β-D-glucopyranoside uronic acid] |  |  |  | Inhibition intensity (concentration of the test compounds) ([3]; 100 μM test compound): 30% (100 μM)
CSc1ccc(Cc2c(O[C@@H]3O[C@H](CO)[C@@H](O)[C@H](O)[C@H]3O)n[nH]c2C(F)(F)F)cc1 [Example Compound 1, 4-((4-methylthiophenyl)methyl)-5-(trifluoromethyl)-1H-pyrazole-3-O-β-D-glucopyranoside] |  |  |  | Inhibition intensity (concentration of the test compounds) ([3]; 10 μM test compound): 84% (10 μM)
CCc1ccc(Cc2c(O[C@@H]3O[C@H](COC(=O)OC)[C@@H](O)[C@H](O)[C@H]3O)nn(-c3ccccc3)c2C(F)(F)F)cc1 [Example Compound 8, 4′-[(4′-ethylphenyl)methyl]-1′-phenyl-5′-trifluoromethyl-1H-pyrazole-3′-O-(6-carbomethoxy)-β-D-glucopyranoside] | 4.1 |  |  | 
